Results from patent publication US9938322B2, “β-hairpin peptidomimetics” (priority 2013, dated 2018).
*1 amine or outer side, *2 acyl side, *3 side chain or, on linkers, in order; H or OH if unused. Where a SMILES comes first, the peptide text is derived from it. Side-chain parts run from the residue outwards. [ ]: non-standard residue; d: D form. The star is where a group is joined. Phe(4-F) = N[C@@H](Cc1ccc(F)cc1)C(=O)O; Pro(3S-OH) = O=C(O)[C@H]1NCC[C@@H]1O; Cha = N[C@@H](CC1CCCCC1)C(=O)O; Chg = N[C@H](C(=O)O)C1CCCCC1; Tle = CC(C)(C)[C@H](N)C(=O)O; dDab = NCC[C@@H](N)C(=O)O; Orn = NCCC[C@H](N)C(=O)O; Dab = NCC[C@H](N)C(=O)O; Nva = CCC[C@H](N)C(=O)O; Dap = NC[C@H](N)C(=O)O; CO = O=C([*:1])[*:2]; X3 = O=C(C(O)CO)*; NHiPr = CC(C)N*

Tested on: human red blood cells (hRBC)
Test: Hemolysis of human red blood cells
Assay type: cell-based
Conditions: red cells of human, 1 h, 100
Outline: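 Washed fresh human erythrocytes (20% v/v, about 0.9×10^9 cells/ml final) incubated with peptide at 100 μg/ml for 1 h at 37° C with shaking. Supernatant OD540 read; hemolysis expressed relative to 2.5% Triton X-100 (100%) and PBS with 0.001% acetic acid (0%).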

SMILES	Hemolysis at 100 μg/ml [%]
C[C@@H]1NC(=O)[C@H](CC2CCCCC2)NC(=O)[C@H](CCN)NC(=O)[C@H](Cc2c[nH]c3ccccc23)NC(=O)[C@H](CCN)NC(=O)[C@@H](CCN)NC(=O)[C@H](CCCCN)NC(=O)[C@H](CCN)NC(=O)[C@H](Cc2ccc(O)cc2)NC(=O)[C@H](C)NC(=O)[C@H](Cc2c[nH]c3ccccc23)NC(=O)[C@@H]2CCCN2C(=O)[C@H]2CCCN2C(=O)[C@H](CO)NC1=O [compound 76] (cyclo(WAY[Dab]K[dDab][Dab]W[Dab][Cha]AS[dP]P))	2
CC(C)C[C@@H]1NC(=O)[C@@H]2CCCN2C(=O)[C@H]2CCCN2C(=O)[C@H](CO)NC(=O)[C@H](C)NC(=O)[C@H](C2CCCCC2)NC(=O)[C@H](CCN)NC(=O)[C@H](Cc2c[nH]c3ccccc23)NC(=O)[C@H](CCN)NC(=O)[C@@H](CCN)NC(=O)[C@H](CCCN)NC(=O)[C@H](CCN)NC(=O)[C@H](Cc2ccc(O)cc2)NC(=O)[C@H](CO)NC1=O [compound 29] (cyclo(LSY[Dab][Orn][dDab][Dab]W[Dab][Chg]AS[dP]P))	6
CC(C)C[C@@H]1NC(=O)[C@@H]2CCCN2C(=O)[C@H]2CCCN2C(=O)[C@H](CO)NC(=O)[C@H](CO)NC(=O)[C@H](C2CCCCC2)NC(=O)[C@H](CCN)NC(=O)[C@H](Cc2c[nH]c3ccccc23)NC(=O)[C@H](CCN)NC(=O)[C@@H](CCN)NC(=O)[C@H](CCCN)NC(=O)[C@H](CCN)NC(=O)[C@H](Cc2ccc(O)cc2)NC(=O)[C@H](CO)NC1=O [compound 116] (cyclo(LSY[Dab][Orn][dDab][Dab]W[Dab][Chg]SS[dP]P))	3
CC(C)C[C@@H]1NC(=O)[C@@H]2[C@@H](O)CCN2C(=O)[C@H]2CCCN2C(=O)[C@H](CO)NC(=O)[C@H](C)NC(=O)[C@H](C(C)(C)C)NC(=O)[C@H](CCN)NC(=O)[C@H](Cc2c[nH]c3ccccc23)NC(=O)[C@H](CCN)NC(=O)[C@@H](CCN)NC(=O)[C@H](CCCN)NC(=O)[C@H](CCN)NC(=O)[C@H](CC2CCCCC2)NC(=O)[C@H](CO)NC1=O [compound 58] (cyclo(AS[dP][Pro(3S-OH)]LS[Cha][Dab][Orn][dDab][Dab]W[Dab][Tle]))	1
CC[C@H](C)[C@@H]1NC(=O)[C@@H]2CCCN2C(=O)[C@H]2CCCN2C(=O)[C@H](CO)NC(=O)[C@H](C)NC(=O)[C@H](C(C)(C)C)NC(=O)[C@H](CCN)NC(=O)[C@H](Cc2c[nH]c3ccccc23)NC(=O)[C@H](CCN)NC(=O)[C@@H](CCN)NC(=O)[C@H](CCCN)NC(=O)[C@H](CCN)NC(=O)[C@H](Cc2ccc(O)cc2)NC(=O)[C@H]([C@@H](C)O)NC1=O [compound 84] (cyclo(ITY[Dab][Orn][dDab][Dab]W[Dab][Tle]AS[dP]P))	0
CC(C)C[C@@H]1NC(=O)[C@@H]2CCCN2C(=O)[C@H]2CCCN2C(=O)[C@H](CO)NC(=O)[C@H](C)NC(=O)[C@H](C(C)(C)C)NC(=O)[C@H](CCN)NC(=O)[C@H](Cc2c[nH]c3ccccc23)NC(=O)[C@H](CCN)NC(=O)[C@@H](CCN)NC(=O)[C@H](CCCN)NC(=O)[C@H](CCN)NC(=O)[C@H](CC2CCCCC2)NC(=O)[C@H](CO)NC1=O [compound 135] (cyclo(LS[Cha][Dab][Orn][dDab][Dab]W[Dab][Tle]AS[dP]P))	5
C[C@@H]1NC(=O)[C@H](C(C)(C)C)NC(=O)[C@H](CCN)NC(=O)[C@H](Cc2c[nH]c3ccccc23)NC(=O)[C@H](CCN)NC(=O)[C@@H](CCN)NC(=O)[C@H](CCCN)NC(=O)[C@H](CCN)NC(=O)[C@H](Cc2c[nH]c3ccccc23)NC(=O)[C@H](CN)NC(=O)[C@H](Cc2c[nH]c3ccccc23)NC(=O)[C@@H]2CCCN2C(=O)[C@H]2CCCN2C(=O)[C@H](CO)NC1=O [compound 79] (cyclo(W[Dap]W[Dab][Orn][dDab][Dab]W[Dab][Tle]AS[dP]P))	1
CC(C)C[C@@H]1NC(=O)[C@@H]2CCCN2C(=O)[C@H]2CCCN2C(=O)[C@H](CO)NC(=O)[C@H](C)NC(=O)[C@H](C(C)(C)C)NC(=O)[C@H](CCN)NC(=O)[C@H](Cc2c[nH]c3ccccc23)NC(=O)[C@H](CCN)NC(=O)[C@@H](CCN)NC(=O)[C@H](CCCN)NC(=O)[C@H](CCN)NC(=O)[C@H](CC2CCCCC2)NC(=O)[C@H](CNC(=O)NC(C)C)NC1=O [compound 40] (cyclo(L[Dap]([CO-NHiPr])[Cha][Dab][Orn][dDab][Dab]W[Dab][Tle]AS[dP]P))	1
CCC[C@@H]1NC(=O)[C@@H]2CCCN2C(=O)[C@H]2CCCN2C(=O)[C@H](CO)NC(=O)[C@H](C)NC(=O)[C@H](C2CCCCC2)NC(=O)[C@H](CCN)NC(=O)[C@H](Cc2c[nH]c3ccccc23)NC(=O)[C@H](CCN)NC(=O)[C@@H](CCN)NC(=O)[C@H](CCCN)NC(=O)[C@H](CCN)NC(=O)[C@H](CC2CCCCC2)NC(=O)[C@H](C)NC1=O [compound 150] (cyclo([Nva]A[Cha][Dab][Orn][dDab][Dab]W[Dab][Chg]AS[dP]P))	4
CCC[C@@H]1NC(=O)[C@H](CCN)NC(=O)[C@H](Cc2c[nH]c3ccccc23)NC(=O)[C@H](CCN)NC(=O)[C@@H](CCN)NC(=O)[C@H](CCCN)NC(=O)[C@H](CCN)NC(=O)[C@H](Cc2ccc(O)cc2)NC(=O)[C@H](CO)NC(=O)[C@H](CC(C)C)NC(=O)[C@@H]2CCCN2C(=O)[C@H]2CCCN2C(=O)[C@H](CO)NC(=O)[C@H](C)NC1=O [compound 30] (cyclo(LSY[Dab][Orn][dDab][Dab]W[Dab][Nva]AS[dP]P))	1
C[C@@H]1NC(=O)[C@H](C(C)(C)C)NC(=O)[C@H](CCN)NC(=O)[C@H](Cc2c[nH]c3ccccc23)NC(=O)[C@H](CCN)NC(=O)[C@@H](CCN)NC(=O)[C@H](CCCN)NC(=O)[C@H](CCN)NC(=O)[C@H](CC2CCCCC2)NC(=O)[C@H](CNC(=O)C(O)CO)NC(=O)[C@H](Cc2c[nH]c3ccccc23)NC(=O)[C@@H]2CCCN2C(=O)[C@H]2CCCN2C(=O)[C@H](CO)NC1=O (stereo partly shown) [compound 13] (cyclo(W[Dap](X3)[Cha][Dab][Orn][dDab][Dab]W[Dab][Tle]AS[dP]P))	2
CC[C@H](C)[C@@H]1NC(=O)[C@@H]2CCCN2C(=O)[C@H]2CCCN2C(=O)[C@H](CO)NC(=O)[C@H](C)NC(=O)[C@H](C(C)(C)C)NC(=O)[C@H](CCN)NC(=O)[C@H](Cc2c[nH]c3ccccc23)NC(=O)[C@H](CCN)NC(=O)[C@@H](CCN)NC(=O)[C@H](CCCN)NC(=O)[C@H](CCN)NC(=O)[C@H](Cc2ccc(O)cc2)NC(=O)[C@H](CC(N)=O)NC1=O [compound 85] (cyclo(INY[Dab][Orn][dDab][Dab]W[Dab][Tle]AS[dP]P))	0
CC[C@H](C)[C@@H]1NC(=O)[C@@H]2CCCN2C(=O)[C@H]2CCCN2C(=O)[C@H](CO)NC(=O)[C@H](C)NC(=O)[C@H](C(C)(C)C)NC(=O)[C@H](CCN)NC(=O)[C@H](Cc2c[nH]c3ccccc23)NC(=O)[C@H](CCN)NC(=O)[C@@H](CCN)NC(=O)[C@H](CCCN)NC(=O)[C@H](CCN)NC(=O)[C@H](Cc2ccc(O)cc2)NC(=O)[C@H](CN)NC1=O [compound 146] (cyclo(I[Dap]Y[Dab][Orn][dDab][Dab]W[Dab][Tle]AS[dP]P))	0
CC(C)C[C@@H]1NC(=O)[C@@H]2CCCN2C(=O)[C@H]2CCCN2C(=O)[C@H](CO)NC(=O)[C@H](C)NC(=O)[C@H](Cc2ccc(O)cc2)NC(=O)[C@H](CCN)NC(=O)[C@H](Cc2c[nH]c3ccccc23)NC(=O)[C@H](CCN)NC(=O)[C@@H](CCN)NC(=O)[C@H](CCCN)NC(=O)[C@H](CCN)NC(=O)[C@H](Cc2ccc(O)cc2)NC(=O)[C@H](CO)NC1=O [compound 31] (cyclo(LSY[Dab][Orn][dDab][Dab]W[Dab]YAS[dP]P))	1
CC(C)C[C@@H]1NC(=O)[C@@H]2CCCN2C(=O)[C@H]2CCCN2C(=O)[C@H](CO)NC(=O)[C@@H](C)NC(=O)[C@H](C(C)(C)C)NC(=O)[C@H](CCN)NC(=O)[C@H](Cc2c[nH]c3ccccc23)NC(=O)[C@H](CCN)NC(=O)[C@@H](CCN)NC(=O)[C@H](CCCN)NC(=O)[C@H](CCN)NC(=O)[C@H](Cc2ccc(O)cc2)NC(=O)[C@H](CO)NC1=O [compound 154] (cyclo(LSY[Dab][Orn][dDab][Dab]W[Dab][Tle][dA]S[dP]P))	0
COC[C@@H]1NC(=O)[C@H](C(C)(C)C)NC(=O)[C@H](CCN)NC(=O)[C@H](Cc2c[nH]c3ccccc23)NC(=O)[C@H](CCN)NC(=O)[C@H](CCN)NC(=O)[C@H](CCCN)NC(=O)[C@H](CCN)NC(=O)[C@H](CC2CCCCC2)NC(=O)[C@H](C)NC(=O)[C@H](Cc2c[nH]c3ccccc23)NC(=O)[C@@H]2CCCN2C(=O)[C@H]2CCCN2C(=O)[C@H](CO)NC1=O [Ex. 5] (cyclo(WA[Cha][Dab][Orn][Dab][Dab]W[Dab][Tle]S(Me)S[dP]P))	0.5
CC[C@H](C)[C@@H]1NC(=O)[C@H](CCN)NC(=O)[C@H](Cc2c[nH]c3ccccc23)NC(=O)[C@H](CCN)NC(=O)[C@@H](CCN)NC(=O)[C@H](CCCN)NC(=O)[C@H](CCN)NC(=O)[C@H](Cc2ccc(O)cc2)NC(=O)[C@H](CO)NC(=O)[C@H]([C@@H](C)CC)NC(=O)[C@@H]2CCCN2C(=O)[C@H]2CCCN2C(=O)[C@H](CO)NC(=O)[C@H](C)NC1=O [compound 81] (cyclo(ISY[Dab][Orn][dDab][Dab]W[Dab]IAS[dP]P))	1
CC(C)C[C@@H]1NC(=O)[C@@H]2CCCN2C(=O)[C@H]2CCCN2C(=O)[C@H](CO)NC(=O)[C@H](C)NC(=O)[C@H](C(C)C)NC(=O)[C@H](CCN)NC(=O)[C@H](Cc2c[nH]c3ccccc23)NC(=O)[C@H](CCN)NC(=O)[C@@H](CCN)NC(=O)[C@H](CCCN)NC(=O)[C@H](CCN)NC(=O)[C@H](CC2CCCCC2)NC(=O)[C@H](CO)NC1=O [compound 140] (cyclo(LS[Cha][Dab][Orn][dDab][Dab]W[Dab]VAS[dP]P))	2
CCC[C@@H]1NC(=O)[C@@H]2CCCN2C(=O)[C@H]2CCCN2C(=O)[C@H](CO)NC(=O)[C@H](C)NC(=O)[C@H](C(C)(C)C)NC(=O)[C@H](CCN)NC(=O)[C@H](Cc2c[nH]c3ccccc23)NC(=O)[C@H](CCN)NC(=O)[C@@H](CCN)NC(=O)[C@H](CCCN)NC(=O)[C@H](CCN)NC(=O)[C@H](Cc2ccc(F)cc2)NC(=O)[C@H](CO)NC1=O [Ex. 104] (cyclo([Nva]S[Phe(4-F)][Dab][Orn][dDab][Dab]W[Dab][Tle]AS[dP]P))	0.5
